# According to patent US20240287042A1, “NOVEL COMPOUND HAVING INHIBITORY ACTIVITY AGAINST PENDRIN, AND PHARMACEUTICAL USES THEREOF” (UIF (University Industry Foundation), Yonsei University, priority 2021, published 2024):
# Key:
# C57BL/6N mice = experiment: Diuretic effect in mice (urine volume); assay type: in vivo; settings: i.p. twice at 3 h interval, urine volume after 6 hours, alone
# Description: Wild-type male C57BL/6N mice aged 8 weeks and weighing 20-24 g were purchased from Orient Bio (Seongnam, South Korea). Before the experiment, water and diet were restricted, and the bladder was stimulated to induce urine. A 100 mg/ml stock concentration of YPI-A4948 dissolved in DMSO was prepared to have final concentrations of 0.001 mg/kg/100 ul, 0.005 mg/kg/100 ul and […] mg/kg/100 ul, 0.1 mg/kg/100 ul, 0.5 mg/kg/100 ul and 1 mg/kg/100 ul (1% DMSO+DW), respectively, and injected intraperitoneally twice with an interval of 3 hours. After 6 hours, the urine volume of each group of mice was measured.
# human wild-type pendrin = molecular target: T1, human wild-type pendrin (Homo sapiens, UniProt O43511); experiment: Pendrin Cl−/SCN− exchange activity in human alveolar epithelial cells (hAEC) overexpressing pendrin; assay type: cell-based; settings: 0.3 μM to 30 μM, read-out: IC50 of human wild-type pendrin-mediated Cl−/SCN− exchange activity
# T1 construct: expressed in transfected cells; host or cells: human alveolar epithelial cells (hAEC) overexpressing pendrin
# T1 sequence (O43511 1-780): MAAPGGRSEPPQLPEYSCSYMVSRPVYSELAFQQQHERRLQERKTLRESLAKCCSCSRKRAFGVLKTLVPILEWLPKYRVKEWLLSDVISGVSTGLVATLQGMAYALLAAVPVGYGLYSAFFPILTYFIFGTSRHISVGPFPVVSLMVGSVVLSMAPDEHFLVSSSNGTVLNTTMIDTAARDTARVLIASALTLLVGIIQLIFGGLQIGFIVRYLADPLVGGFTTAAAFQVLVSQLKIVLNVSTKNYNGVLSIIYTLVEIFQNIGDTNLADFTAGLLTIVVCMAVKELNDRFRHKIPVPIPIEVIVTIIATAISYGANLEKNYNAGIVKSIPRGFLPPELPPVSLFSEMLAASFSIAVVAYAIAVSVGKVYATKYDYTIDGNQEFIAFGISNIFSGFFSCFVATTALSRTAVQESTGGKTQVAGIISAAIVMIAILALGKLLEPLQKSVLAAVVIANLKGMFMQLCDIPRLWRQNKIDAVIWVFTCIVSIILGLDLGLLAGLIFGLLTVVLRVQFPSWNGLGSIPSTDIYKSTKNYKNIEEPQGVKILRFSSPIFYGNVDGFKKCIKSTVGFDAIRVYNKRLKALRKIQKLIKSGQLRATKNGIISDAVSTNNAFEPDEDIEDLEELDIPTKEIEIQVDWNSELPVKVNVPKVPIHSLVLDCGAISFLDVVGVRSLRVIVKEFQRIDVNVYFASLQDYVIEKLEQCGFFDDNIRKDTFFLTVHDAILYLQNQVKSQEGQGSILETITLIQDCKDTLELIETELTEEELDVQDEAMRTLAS
# Description: In FIG. 13a, human alveolar epithelial cells (hAEC) overexpressing pendrin were treated with YPI-A4948 as a novel pendrin inhibitor from 0.3 μM to 30 μM, and the Cl^−/SCN^− exchange ability of SLC26A4 was measured by the change in YFP fluorescence when compared to before YPI-A4948 treatment. The IC50 of human wild-type pendrin-mediated Cl^−/SCN^− exchange activity was confirmed to be 0.9 μM.
# SLC26A4 (pendrin) = experiment: Pendrin protein and mRNA expression after LPS in hAEC; assay type: cell-based, human
smiles,measurement,setting,value
"Cc1ccc2[nH]c(C(=O)O)c(CC(=O)N3CCN(c4c(C)cccc4Cl)CC3)c2c1 [YPI-A4948, 3-(2-(4-(2-Chloro-6-methylphenyl)piperazin-1-yl)-2-oxoethyl)-5-methyl-1H-indole-2-carboxylic acid]",Dose from which a diuretic effect is exhibited,C57BL/6N mice,≥ 0.01 mg/kg
same,IC50,human wild-type pendrin,900 nM
same,Protein expression level of SLC26A4 (pendrin),SLC26A4 (pendrin); LPS treatment after YPI-A4948 pretreatment in vitro,inhibited by YPI-A4948 in a dose-dependent manner
same,mRNA expression level of pendrin,SLC26A4 (pendrin); increased by LPS in vitro,not statistically significantly reduced
